Assay results: patent US11091478B2 (Fochon Pharmaceuticals, Ltd., priority 2017, dated 2021)

Tests used:
[1] = test system: RS4;11 cells; assay: Cell proliferation assay (MTS), RS4;11 cells, 72 h; assay type: cell-based; settings: Homo sapiens, RS4-11, 72 h
Method in brief: (§1)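 Treatment lasts 72 h for RS4;11 and 120 h for DOHH2 cells seeded at 5000 per well in serum-containing RPMI-1640. A 2 h MTS step, halted with 10% SDS, precedes dual-wavelength absorbance reading and IC50 fitting.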

[2] = test system: DOHH2 cells; assay: Cell proliferation assay (MTS), DOHH2 cells, 120 h; assay type: cell-based; settings: Homo sapiens, DOHH-2, 120 h
Method in brief: as §1

IC50 [1] [µM]	SMILES	IC50 [2] [µM]
0.002	CC1(C)CCC(CN2CCN(c3ccc(C(=O)NS(=O)(=O)c4cc5c(c([N+](=O)[O-])c4)N[C@@H](Cc4ccccc4)CO5)c(Oc4cnc5[nH]ccc5c4)c3)CC2)=C(c2ccc(Cl)cc2)C1 [Example 2-132, (S)-2-((1H-pyrrolo[2,3-b]pyridin-5-yl)oxy)-N-((3-benzyl-5-nitro-3,4-dihydro-2H-benzo [b][1,4]oxazin-7-yl)sulfonyl)-4-(4-((4′-chloro-5,5-dimethyl-3,4,5,6-tetrahydro-[1,1′-biphenyl]-2-yl)meth-yl)piperazin1-yl)benzamide]	0.028
0.001	CC1(C)CCC(CN2CCN(c3ccc(C(=O)NS(=O)(=O)c4cc5c(c([N+](=O)[O-])c4)N[C@@H](Cc4ccccn4)CO5)c(Oc4cnc5[nH]ccc5c4)c3)CC2)=C(c2ccc(Cl)cc2)C1 [Example 2-133, (S)-2-((1H-pyrrolo[2,3-b]pyridin-5-yl)oxy)-4-(4-((4′-chloro-5,5-dimethyl-3,4,5,6-tetra-hydro-[1,1′-biphenyl]-2-yl)methyl)piperazin-1-yl)-N-((5-nitro-3-(pyridin-2-ylmethyl)-3,4-dihydro-2H-benzo[b][1,4]oxazin-7-yl)sulfonyl)benzamide]	0.008
0.002	COC(=O)NC[C@@H]1COc2cc(S(=O)(=O)NC(=O)c3ccc(N4CCN(CC5=C(c6ccc(Cl)cc6)CC(C)(C)CC5)CC4)cc3Oc3cnc4[nH]ccc4c3)cc([N+](=O)[O-])c2N1 [Example 2-134, methyl (R)-((7-(N-(2-((1H-pyrrolo[2,3-b]pyridin-5-yl)oxy)-4-(4-((4′-chloro-5,5-dimethyl-3,4,5,6-tetrahydro-[1,1′-biphenyl]-2-yl)methyl)piperazin-1-yl)benzoyl)sulfamoyl)-5-nitro-3,4-dihydro-2H-benzo[b][1,4]oxazin-3-yl)methyl)carbamate]	0.039
0.072	CC1(C)CCC(CN2CCN(c3ccc(C(=O)NS(=O)(=O)c4cc5c(c([N+](=O)[O-])c4)N[C@H](CNS(=O)(=O)C4CC4)CO5)c(Oc4cnc5[nH]ccc5c4)c3)CC2)=C(c2ccc(Cl)cc2)C1 [Example 2-138, (R)-2-((1H-pyrrolo[2,3-b]pyridin-5-yl)oxy)-4-(4-((4′-chloro-5,5-dimethyl-3,4,5,6-tetra-hydro-[1,1′-biphenyl]-2-yl)methyl)piperazin-1-yl)-N-((3-(cyclopropanesulfonamidometh-yl)-5-nitro-3,4-dihydro-2H-benzo[b][1,4]oxazin-7-yl)sulfonyl)benzamide]	0.166
0.035	CC1(C)CCC(CN2CCN(c3ccc(C(=O)NS(=O)(=O)c4cc5c(c([N+](=O)[O-])c4)N[C@H](CC(=O)N4CCOCC4)CO5)c(Oc4cnc5[nH]ccc5c4)c3)CC2)=C(c2ccc(Cl)cc2)C1 [Example 2-143, (R)-2-((1H-pyrrolo[2,3-b]pyridin-5-yl)oxy)-4-(4-((4′-chloro-5,5-dimethyl-3,4,5,6-tetra-hydro-[1,1′-biphenyl]-2-yl)methyl)piperazin-1-yl)-N-((3-(2-morpholino-2-oxoethyl)-5-nitro-3,4-dihydro-2H-benzo[b][1,4]oxazin-7-yl)sulfonyl)benzamide]	0.035
0.003	CC1(C)CCC(CN2CCN(c3ccc(C(=O)NS(=O)(=O)c4cc5c(c([N+](=O)[O-])c4)N[C@H](CC#N)CO5)c(Oc4cnc5[nH]ccc5c4)c3)CC2)=C(c2ccc(Cl)cc2)C1 [Example 2-144, (R)-2-((1H-pyrrolo[2,3-b]pyridin-5-yl)oxy)-4-(4-((4′-chloro-5,5-dimethyl-3,4,5,6-tetra-hydro-[1,1′-biphenyl]-2-yl)methyl)piperazin-1-yl)-N-((3-(cyanomethyl)-5-nitro-3,4-di-hydro-2H-benzo[b][1,4]oxazin-7-yl)sulfo-nyl)benzamide]	0.014

Second part, the molecule before the results:

SMILES	IC50 [1] [µM]	IC50 [2] [µM]
CC1(C)CCC(CN2CCN(c3ccc(C(=O)NS(=O)(=O)c4cc5c(c([N+](=O)[O-])c4)N[C@H](CCN4CCS(=O)(=NC6CC6)CC4)CO5)c(Oc4cnc5[nH]ccc5c4)c3)CC2)=C(c2ccc(Cl)cc2)C1 [Example 2-129, (R)-2-((1H-pyrrolo[2,3-b]pyridin-5-yl)oxy)-4-(4-((4′-chloro-5,5-dimethyl-3,4,5,6-tetra-hydro-[1,1′-biphenyl]-2-yl)methyl)piperazin-1-yl)-N-((3-(2-(1-(cylcopropylimino)-1-oxido-1λ^6-thiomorphlino)ethyl)-5-nitro-3,4-dihydro-2H-benzo[b][1,4]oxazin-7-yl)sulfanoyl)benzamide]	0.009	0.016
COC(=O)N=S1(=O)CCN(CC[C@@H]2COc3cc(S(=O)(=O)NC(=O)c4ccc(N5CCN(CC6=C(c7ccc(Cl)cc7)CC(C)(C)CC6)CC5)cc4Oc4cnc5[nH]ccc5c4)cc([N+](=O)[O-])c3N2)CC1 [Example 2-130, methyl (R)-(4-(2-(7-(N-(2-((1H-pyrrolo[2,3-b]pyri-din-5-yl)oxy)-4-(4-((4′-chloro-5,5-dimethyl-3,4,5,6-tetrahydro-[1,1′-biphenyl]-2-yl)meth-yl)piperazin-1-yl)benzoyl)sulfamoyl)-5-nitro-3,4-dihydro-2H-benzo[b][1,4]oxazin-3-yl)ethyl)-1-oxido-1λ^6-thiomorpholin-1-ylidene)carbamate]	0.014	0.026
CC1(C)CCC(CN2CCN(c3ccc(C(=O)NS(=O)(=O)c4cc5c(c([N+](=O)[O-])c4)N[C@H](CCN4CCC(N=S(C)(C)=O)CC4)CO5)c(Oc4cnc5[nH]ccc5c4)c3)CC2)=C(c2ccc(Cl)cc2)C1 [Example 2-131, (R)-2-((1H-pyrrolo[2,3-b]pyridin-5-yl)oxy)-4-(4-((4′-chloro-5,5-dimethyl-3,4,5,6-tetra-hydro-[1,1′-biphenyl]-2-yl)methyl)piperazin-1-yl)-N-((3-(2-(4-((dimethyl(oxo)-λ^6-sulfa-nylidene)amino)piperidin-1-yl)ethyl)-5-nitro-3,4-dihydro-2H-benzo[b][1,4]oxazin-7-yl)sulfonyl)benzamide]	0.009	0.039
CC1(C)CCC(CN2CCN(c3ccc(C(=O)NS(=O)(=O)c4cc5c(c([N+](=O)[O-])c4)N[C@H](CNS(=O)(=O)C4CCOCC4)CO5)c(Oc4cnc5[nH]ccc5c4)c3)CC2)=C(c2ccc(Cl)cc2)C1 [Example 2-139, (R)-2-((1H-pyrolo[2,3-b]pyridin-5-yl)oxy)-4-(4-((4′-chloro-5,5-dimethyl-3,4,5,6-tetra-hydro-[1,1′-biphenyl]-2-yl)methyl)piperazin-1-yl)-N-((5-nitro-3-(((tetrahydro-2H-pyran)-4-sulfonamido)methyl)-3,4-dihdyro-2H-benzo[b][1,4]oxazin-7-yl)sulfonyl)benzamide]	0.088	0.338
CC1(C)CCC(CN2CCN(c3ccc(C(=O)NS(=O)(=O)c4cc5c(c([N+](=O)[O-])c4)N[C@@H](CC(=O)N4CCOCC4)CO5)c(Oc4cnc5[nH]ccc5c4)c3)CC2)=C(c2ccc(Cl)cc2)C1 [Example 2-142, (S)-2-((1H-pyrrolo[2,3-b]pyridin-5-yl)oxy)-4-(4-((4′-chloro-5,5-dimethyl-3,4,5,6-tetra-hydro-[1,1′-biphenyl]-2-yl)methyl)piperazin-1-yl)-N-((3-(2-morpholino-2-oxoethyl)-5-nitro-3,4-dihydro-2H-benzo[b][1,4]oxazin-7-yl)sulfonyl)benzamide]	0.003	0.028
